The subject of one data set is Acinetobacter baumannii. Put plainly: In vitro antibacterial activity, minimum inhibitory concentration (MIC). It counts as cell-based. The essentials:
(§1)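 CLSI broth microdilution in 1.02×CAMHB; two-fold compound series 64 to 0.0625 μg/mL final from DMSO. Inoculum from TSA colonies adjusted to OD600 0.1-0.15 in saline, diluted 400-fold, verified by colony count. Growth scored visually after 20 h at 35±2° C.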

In the next data set the test system is Pseudomonas aeruginosa. Described as above. In kind it is cell-based. In outline:
as §1

The nature of data set [1]: Pharmacokinetics of the compounds in mice. In kind it is in vivo, BALB/c mice. An excerpt: Animals: male BALB/c mice, SPF grade, purchased from Changzhou Cavens Experimental Animal Co., Ltd.; 16-24 g, license number: SCXK (Su)2016-0010; 2 to 3 days of adaptation period were given before the experiment.
Instruments: API 4500 High Performance Liquid Chromatograph Coupled Triple Quadrupole Mass Spectrometer, and Analyst QS A01.01 Chromatography Workstation were both purchased from AB SCIEX of the United States; Milli-Q ultrapure water device was purchased from Millipore; CF16R XII desktop high-speed refrigerated centrifuge was purchased From Hitachi Company; Qilinbeier Vortex-5 oscillator was purchased from IKA Company of German; electric heating constant-temperature water bath was purchased from Changzhou Guohua Electric Appliance Co., Ltd.; electric pipette was purchased from Thermo Company of American; and microanalysis balance was purchased from Shanghai Mettler Co., Ltd.
2 mg of the test compound was weighed, added to physiological saline, vortexed for 2 min, and ultrasonicated for 3 min, to prepare a test solution with a concentration of 0.2 mg/mL for intravenous administration.
A single dose of 2 mg/kg of the test compound was administered to BALB/c mice via the tail vein, the dose volume being 0.1 mL/10 g. At 5 min, 15 min, 30 min, 1 h, 2 h, 4 h after administration, blood samples were collected from the orbital venous plexus into heparinized EP tubes (0.6 mL), which were temporarily placed on crushed ice.
The samples were centrifuged at 8000 rpm for 5 min. 15 μL of upper plasma were transferred to a 96-well plate. 150 μL of methanol:acetonitrile (v/v=1:1) (containing 20 ng/mL tolbutamide) was added to 15 μL of plasma, shaken for 3 min, and centrifuged at 4500 rpm for 5 min. 100 μL of supernatant was taken to a 2 mL deep well plate. 100 μL of diluent (pure water) was added. The samples were shaken for 3 min, and centrifuged at 4500 rpm for 5 min. 180 μL of the supernatant was transferred to the sample plate. The content of the compound in the supernatant sample was analyzed by LC-MS/MS, and various pharmacokinetic parameters were calculated with WinNonlin software.

The subject of data set [2] is drug-resistant Acinetobacter baumannii. Kind of data set: MIC in combination with Relebactam. In kind it is cell-based. An excerpt: In addition, the inventors of the present invention also tested the inhibitory activities of the compound of Example 1 and Compound C, respectively, in combination with Relebactam on drug-resistant Acinetobacter baumannii (the experimental method was the same as that in Experimental Example 1).

Setting [3] is: mouse, male BALB/c mice, single intravenous dose 2 mg/kg, plasma.

Counter-ions that a name gives are not always drawn.

As for `CC1(C)[C@H](NC(=O)/C(=N\O[C@@H](COc2ccc(C(=O)Nc3cn(CCCN)[n+](CC4CNC4)c3)cc2)C(=O)O)c2csc(N)n2)C(=O)N1OS(=O)(=O)[O-]` [Example 1, (S)-3-((Z)-2-(((S)-2-(4-((1-(3-aminopropyl)-2-(azetidin-3-ylmethyl)-1H-pyrazol-2-ium-4-yl)carbamoyl)phenoxy)-1-carboxyethoxy)imino)-2-(2-aminothiazol-4-yl)acetylamino)-2,2-dimethyl-4-oxoazetidin-1-yl Sulfate], the MIC in the data set with Acinetobacter baumannii (ATCC19606, strain ATCC 19606) amounted to 2 µg/mL; in the data set with Acinetobacter baumannii (strain HDBAB-YK4), 2 µg/mL; against Acinetobacter baumannii (strain HDBAB-YK7) it was 0.25 µg/mL; in the data set on Acinetobacter baumannii (strain HDBAB-YK12) it was 2 µg/mL; in the data set on Acinetobacter baumannii (strain HDBAB-YK16) it was 8 µg/mL; against Acinetobacter baumannii (strain HDBAB_OXA_7) it was 4 µg/mL. The MIC against Pseudomonas aeruginosa (strain HDBPA-YK9) worked out at 2 µg/mL; against Pseudomonas aeruginosa (strain HDBPA-YK15), 32 µg/mL; in data set [2] (strain HDBAB-YK12, in combination with 4 μg/mL Relebactam), 2 µg/mL; in data set [2] (strain HDBAB-YK16, in combination with 4 μg/mL Relebactam), 4 µg/mL; in data set [2] (strain HDBAB_OXA_7, in combination with 4 μg/mL Relebactam), 2 µg/mL. Besides, in data set [1] (intravenous dose of 2 mg/kg), the “blood concentration (CO)” value is 11.548 µg/mL. Further, the Vd in data set [1] (male, BALB/c, mouse, plasma, iv, 2 mg/kg, male BALB/c mice, single intravenous dose 2 mg/kg, plasma, read-out: VSS) amounted to 0.25 L/kg. The AUC(0-inf) in data set [1] (setting [3]) worked out at 3180 ng·h/mL. In addition, the AUC(0-t) in data set [1] (setting [3]) worked out at 3140 ng·h/mL. Further, the C0 in data set [1] (setting [3]) turned out to be 11500 ng/mL. In data set [1] (setting [3]), this compound showed a clearance of 10.8 mL/min/kg. For the same compound, in data set [1] (setting [3]), the half-life was 20.4 min.

A word on the MIC: it is the least concentration at which growth counts as inhibited. As a reminder, the AUC(0-inf) is total exposure, with the tail of the curve extrapolated. By AUC(0-t) is commonly meant the area under the concentration-time curve up to a stated or last time point. A lower AUC(0-t) goes with less exposure. A word on the clearance: it is a measure of how efficiently the substance is removed, as volume per time. Read a low clearance as a low capacity for elimination. As a reminder, the half-life is how long it takes for the measured level to halve.

For the origin of these results see US20220002288A1, “MONOBACTAM COMPOUNDS AND USE THEREFOR” (priority 2018, published 2022).
